No end group written: not given here.
Columns and labels:
[1] = tested on: Pseudomonas aeruginosa O1 (PAO1); assay: Antimicrobial killing of Pseudomonas aeruginosa PAO1 by synthetic mature β-defensin peptides; assay type: cell-based; settings: for bacterial killing after TCEP reduction: reduced peptide (TCEP), 50 µg/ml peptide, PAO1, 3 hours, compared with oxidised form
Excerpt: The DefbΔ9/DefbΔ9 mice homozygous for the deletion have no obvious gross phenotype compared to littermate controls after 8 generations of backcrossing to C57Bl/6. No change in size, weight or appearance is apparent, except mice carrying the mutant allele have paler tails by virtue of the Agouti transgene included in the MICER vector (data not shown). β-defensins are classically known as antimicrobial peptides, so we tested the mature peptides in vitro against a Gram-negative bacterium (Pseudomonas aeruginosa, PAO1). […] Despite deleting the expression of these antimicrobials from the homozygous mice, there is no indication that the mutant mice have an increased inflammatory profile under normal animal housing conditions. There is no elevation in levels of TNF-α or IL-6 or type I interferon in sera from mutant versus wild-type mice (Figure 1D).
Supplementary file pgen.1003826.s003.tif: Figure S3 Level of antimicrobial killing against Pseudomonas aeruginosa O1 (PAO1) by the reduced and oxidized peptides. β-defensins with the mature peptide sequences (as shown in Table 1) were purchased from Almac Sciences (Scotland) Limited in an oxidised form. They were tested for their ability to kill PAO1 in 3 hours at various concentrations of peptide. […] TCEP alone had no effect on bacterial survival (data not shown). […] (TIF) Click here for additional data file.

[2] = tested on: wild-type cauda sperm; assay: A23187-induced acrosome reaction of wild-type sperm, Coomassie G250 stain; assay type: cell-based, mouse; settings: wild-type (+/+) sperm treated with A23187, T90 minutes, 157 of 293 sperm, untreated control 14%
Procedure: (§1) We treated sperm from wild-type littermates (+/+) with A23187 to release calcium and induce AR, and examined their ultrastructure by TEM at the T90 minutes time point (Figure S4).
Cauda sperm were isolated in modified Tyrode's medium, fixed in 4% formalin for 15 mins. Sperm were spun down (1000× g 5 mins) then washed once in 0.1 M ammonium acetate (pH 9.0) and resuspended in a final volume of approximately 50 µl. An aliquot of 20 µl was smeared on glass slide, allowed to air dry then stained for 2 mins with a solution of 0.22% Coomassie blue G250 (wt/v) in 50% methanol (v/v) and 10% acetic acid (v/v). Slides were washed 3 times in distilled water, air-dried and mounted in glycerol. Acrosome integrity of at least 150 sperm per animal was assessed by the presence or absence of an intense blue stain on the anterior sperm head (mean ± SD; n = 3 pairs).

[3] = tested on: wild-type cauda sperm; assay: TEM of microtubule structure in tails of A23187-treated wild-type sperm; assay type: cell-based, mouse; settings: wild-type cauda sperm treated with A23187 (1 µM in the Figure S4 legend), T90 minutes, 101/195 tails in focus, control 3%
Procedure: as §1
Epididymides and decapsulated testis were fixed with 2% paraformaldehyde (PFA), 2.5% glutaraldehyde in 0.1M sodium cacodylate buffer + 0.04% CaCl2 for 30 mins at room temperature. The tissues were cut roughly into 1 mm cubes and further fixed overnight at 4°C. Fixed cells were rinsed in 0.1M sodium cacodylate buffer + 0.4% CaCl2, post-fixed in 1% osmium tetroxide (OsO4, Agar Scientific) for one hour, and dehydrated in sequential steps of acetone (25%, 50%, 75% and 100% twice) prior to impregnation in increasing concentrations (25%, 50%, 75%) of resin (TAAB Lab Equipment) in acetone followed by 100% resin for 3 times, placed in moulds and polymerised at 60°C for 24 hrs. Ultrathin sections of 70 nm were subsequently cut using a diamond knife on a Leica EM UC7 ultramicrotome. Sections were stretched with chloroform to eliminate compression and mounted on Pioloform filmed copper grids prior to staining with 1% aqueous uranyl acetate and lead citrate (Leica). They were viewed on a Philips CM100 Compustage (FEI) Transmission Electron Microscope with images collected using an AMT CCD camera (Deben). […]

[4] = tested on: sperm; settings: 10 µM A23187; cited from earlier work
Excerpt: We sought to understand why sperm from the DefbΔ9/DefbΔ9 have this precocious capacitation and increased spontaneous AR. Sperm require an increase in intracellular calcium, which causes hyperactivation and allows progression to the AR. Mice deleted for any of the components of the calcium CatSper (cation channels of sperm) channel are infertile due to their lack of ability to transport calcium into the cell, resulting in an inability to undergo capacitation, hyperactivation and prepare sperm for the AR [32]. Conversely, sperm exposed to a ten-fold increase in cauda epididymal calcium concent ...

## O=C(O)CCP(CCC(=O)O)CCC(=O)O [TCEP, Tris (2-carboxyethyl) phosphine]
[1]; TCEP alone, without peptide, data not shown
  effect on bacterial survival: no effect

## CNc1ccc2oc(C[C@H]3O[C@@]4(CC[C@H]3C)O[C@H]([C@H](C)C(=O)c3ccc[nH]3)[C@H](C)C[C@H]4C)nc2c1C(=O)O [A23187]
[2]
  acrosome reacted sperm: 53%
[3]
  sperm with microtubule disruption (abnormal tail score): 52%
[4]
  acrosome reaction: will undergo the AR
  sperm motility: immotile

## FDEKCSRVNGRCTAS-CLKNEELVALC-QKNLKCCVTVQPCGKSKSNQSDEGSGHMGTWG (disulfide) [Defb15, mature synthetic mouse β-defensin peptide]
[1]
  bacterial killing after TCEP reduction: unremarkable

## HPGTFHVRIKCMPKMTAVFGDNCSFYSSMGDLCNNTKSVCCMVPVRMDNI (disulfide (positions not given here)) [Defb50, mature synthetic mouse β-defensin peptide, missing the second cysteine of the motif]
[1]; PAO1, Figure S3
  antimicrobial activity in either oxidised or reduced form: active antimicrobials
[1]; oxidised peptide, PAO1, Figure S3
  antimicrobial activity, oxidised form: poor antimicrobial activity
[1]
  bacterial killing after TCEP reduction: improves

From article PMC3812073, “Partial Deletion of Chromosome 8 β-defensin Cluster Confers Sperm Dysfunction and Infertility in Male Mice” (PLoS Genetics, 2013)
